The results in this text go back to paper PMC4865845, “A human genome-wide loss-of-function screen identifies effective chikungunya antiviral drugs” (Nature Communications, 2016).

Series [1] relates to CHIKV. Nature of the series: microbe, parasite or virus in culture. The class given is cell-based, chikungunya virus. The note with it: HEK-293 cells pretreated with dilutions of each drug, CHIKV-GFP, 18 h p.i.
Series [2] concerns HEK-293 cells. As to the kind of experiment: Cell viability, Cell Proliferation Reagent WST-1. The class given is cell-based, human. The note with it: read-out: WST-1 IC50. Here is the method:
To exclude the possible cytotoxic effects, all compounds were additionally tested using the ‘Cell Proliferation Reagent WST-1' (Roche Diagnostics). HEK-293 cells were treated with the same concentrations of the various substances and 18 h later WST-1 was added. Readout was conducted using the EnVision Multilabel Reader (PerkinElmer).
For orientation: Tetrazolium assays rely on reduction of a dye to a coloured formazan, in cell work by metabolically active cells.

Series [3] concerns CHIKV. In kind it is cell-based, chikungunya virus.

Like-named read-outs stand apart in the source and are kept apart here. Where only a bound is given, the exact number is not on record here.

The IC50 is the midpoint of a concentration-inhibition curve. For `CCCCCCCCCCC[C@@H](C[C@@H]1OC(=O)[C@H]1CCCCCC)OC(=O)[C@H](CC(C)C)NC=O` [Orlistat], the IC50 stood at 820 nM in series [1] (Chikungunya virus, HEK293) and 8670 nM in series [2] (Homo sapiens, HEK293, 18 h).

With `CNC(=O)c1cc(Oc2ccc(NC(=O)Nc3ccc(Cl)c(C(F)(F)F)c3)cc2)ccn1` [Sorafenib], the IC50 was 1110 nM in series [1] (Chikungunya virus, HEK293) and 18200 nM in series [2] (Homo sapiens, HEK293, 18 h).

With `Cc1ccc(F)c(NC(=O)Nc2ccc(-c3cccc4[nH]nc(N)c34)cc2)c1` [Linifanib], the half-maximal inhibitory concentration (IC50) in series [1] (Chikungunya virus, HEK293) is 2150 nM; in series [2] (Homo sapiens, HEK293, 18 h), greater than 60000 nM.

Consider `COc1cc(N2CCC(N3CCN(C)CC3)CC2)ccc1Nc1ncc(Cl)c(Nc2ccccc2S(=O)(=O)C(C)C)n1` [TAE684], for which the IC50 amounted to 150 nM in series [1] (Chikungunya virus, HEK293) and 2070 nM in series [2] (Homo sapiens, HEK293, 18 h).

`C=CC/C=C\C/C=C\CCCCCCCc1cccc(O)c1C(=O)O` [(15:3)-Anacardic acid]: the IC50 in series [1] came to 580 nM; in series [2] (HEK-293 cell viability, 18 h, * = treatment induced <50% cell death), 2680 nM.

As to `Cc1ccc(Nc2nccc(N(C)c3ccc4c(C)n(C)nc4c3)n2)cc1S(N)(=O)=O` [Pazopanib], the IC50 was found to be 130 nM in series [1] (Chikungunya virus, HEK293) and 1320 nM in series [2] (Homo sapiens, HEK293, 18 h).

For the compound `O=c1cc(-c2ccccc2)oc2ccc(O)cc12` [6-Hydroxyflavone], the IC50 was 2600 nM in series [1] (Chikungunya virus, HEK293) and greater than 60000 nM in series [2] (Homo sapiens, HEK293, 18 h).

Turning to `CCOC(=O)C1=C(C)NC(C)=C(C(=O)OC)C1c1cccc(Cl)c1Cl` (centres unmarked) [Felodipine], the 50% inhibitory concentration (IC50) was found to be 3240 nM in series [1] (Chikungunya virus, HEK293) and 12100 nM in series [2] (Homo sapiens, HEK293, 18 h).

For the compound `OCCN1CCN(CCCN2c3ccccc3Sc3ccc(Cl)cc32)CC1` [Perphenazine], the IC50 in series [1] (Chikungunya virus, HEK293) came to 630 nM; in series [2] (Homo sapiens, HEK293, 18 h), 24200 nM.

As for `O=C1Cc2c([nH]c3ccc([N+](=O)[O-])cc23)-c2ccccc2N1` [Alsterpaullone], the IC50 worked out at 2 nM in series [1] (Chikungunya virus, HEK293) and 44400 nM in series [2] (Homo sapiens, HEK293, 18 h).

On to `CC(Cc1ccccc1)NCCC(c1ccccc1)c1ccccc1` (centres unmarked) [Prenylamine], for which the IC50 in series [1] (Chikungunya virus, HEK293) is 2390 nM; in series [2] (Homo sapiens, HEK293, 18 h), 16500 nM.

“s9337 (GCTCTCCAACAATTACTAT; chemistry not given here) [reference compound]” displayed a Score_si4 in series [3] of -0.09.

On to “s922 (CATTAACATTGTTCGCAAA; chemistry not given here)”, for which the Score_si4 in series [3] is 1.81.

“Hs_PRPF4B_5 (sense TCGTCTGATGATAACCTTGAA; chemistry not given here)” had a Score_si1 in series [3] of 2.38.

For “Hs_NDUFA7_1 (CAGGGAGAATGTGACCTAATT; chemistry not given here) [reference compound]”, in series [3], the Score_si1 is listed as -2.23.

“Hs_PP3856_1 (CTGGACAGTGGTGACCTGCTA; chemistry not given here)” came in with a Score_si2 in series [3] of 1.53.

For the compound “Hs_PRSS15_3 (sense TAGAAGCTATTTAATGATTAA; chemistry not given here)”, the Score_si4 in series [3] turned out to be 1.21.

“Hs_PTBP1_5 (sense CACGCACATTCCGTTGCCTTA; chemistry not given here) [reference compound]”: in series [3], the Score_si2 is reported as -1.23.

With “s10956 (sense CAAGCGGATTTCTACCCTT; chemistry not given here)”, in series [3], the Score_si1 is given as 1.05.

In series [3], “Hs_HMGA1L4_2 (sense CTGGCTGGATGAAGACAGTAA; chemistry not given here)” had a Score_si4 of 0.45.

In turn, “s15797 (GGAATTACGGAGATATAGA; chemistry not given here)” displayed a Score_si3 in series [3] of 1.45.

Turning to “s34678 (GAGTTTAAGATGATGCCTA; chemistry not given here)”, the Score_si3 in series [3] stood at 0.6.

As to “Hs_UMPS_1 (CACCGCATTGATACTATAATA; chemistry not given here)”, the Score_si4 in series [3] is given as 1.35.

“Hs_DMAP1_1 (GCGGATGTACGGGACATTCTA; chemistry not given here)” had a Score_si1 in series [3] of 2.23.

As to “Hs_EIF2B5_1 (CTTGTATATGTTAATATTAAA; chemistry not given here)”, the Score_si4 in series [3] turned out to be 1.02.

In series [3], “Hs_CGI-12_1 (sense AAGATGTTAACTGCAAATAAA; chemistry not given here) [reference compound]” yielded a Score_si1 of -2.28.

In turn, “Hs_COPG_2 (sense CAGGAAAGGGACATTGTAAAT; chemistry not given here)” displayed a Score_si2 in series [3] of 2.25.

Regarding “Hs_UBE2C_4 (CAGGACCATTCTGCTCTCCAT; chemistry not given here) [reference compound]”, the Score_si3 in series [3] is recorded as -0.75.

For the compound “Hs_UQCRFS1_1 (CAGCATGATCTAGATCGAGTA; chemistry not given here)”, in series [3], the Score_si1 came to 3.18.

“s15562 (sense GCTTAGAAATGGACGACGA; chemistry not given here) [reference compound]” gave a Score_si3 in series [3] of -0.27.

The compound “s14080 (sense GAGTGGTCTTTTCAACACT; chemistry not given here)” returned a Score_si2 in series [3] of 1.38.

“Hs_ODZ3_4 (CACGAGGAAACTACAATTCCA; chemistry not given here)” registered a Score_si3 in series [3] of 1.

As for “Hs_RTN2_1 (sense TTGGATTTACACTGTAATAAA; chemistry not given here)”, the Score_si4 in series [3] was 0.49.

“Hs_CSNK1A1_5 (sense AGGGCTAAAGGCTGCAACAAA; chemistry not given here)” had a Score_si1 in series [3] of 2.25.

Regarding “Hs_ATP6AP2_2 (AAGAGTGTATATGGTAGGGAA; chemistry not given here)”, the Score_si4 in series [3] turned out to be 0.62.

In turn, “Hs_MAP3K14_5 (CACATGCATGTGACTCCTCAA; chemistry not given here)” gave a Score_si4 in series [3] of 0.74.

In series [3], “s33488 (CCACCTAGCTTGTAACGAA; chemistry not given here)” displayed a Score_si4 of 1.58.

The compound “s51653 (sense GCACCTTGCAGGATTGGAA; chemistry not given here)” returned a Score_si3 in series [3] of 0.68.

The compound “Hs_ROCK1_3 (sense CAGATAAAGATCACACTGTTA; chemistry not given here)” displayed a Score_si3 in series [3] of 0.95.

“Hs_EXOSC1_2 (AAGCAGAGAAAGACATCTAAA; chemistry not given here) [reference compound]” gave a Score_si1 in series [3] of -2.21.

“s27235 (sense AGACCCACACTAAAGAATT; chemistry not given here) [reference compound]” registered a Score_si2 in series [3] of -0.6.

The compound “s17592 (GCAACTCTCCTTCACCAAT; chemistry not given here) [reference compound]” yielded a Score_si4 in series [3] of -0.08.

As to “Hs_RAB3D_4 (sense AAGCAAGTTCTTGCCCAATCA; chemistry not given here)”, in series [3], the Score_si2 stood at 1.56.

In turn, “Hs_TGIF_1 (sense TACCCAGAGGACACTTGTAAA; chemistry not given here)” returned a Score_si1 in series [3] of 1.41.

In the case of “s5295 (sense CGAGGTCATTGTGCATGAA; chemistry not given here)”, the Score_si4 in series [3] is recorded as 0.77.
